As usually defined, the viability, T/C is the ratio of treated to control. As usually defined, the IC50 is the concentration at which inhibition is half-maximal.

The test system of the experiment is 349418-098-R tumor spheroid viability. Description: Anticancer human tumor 349418-098-R patient-derived lung adenocarcinoma cell line growth inhibition. To be noted: spheroids with HUVEC and MSC; for viability, T/C: stronger effect = lower value. The method in brief: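 Complex spheroids of malignant cells with endothelial cells and mesenchymal stem cells; agents alone or combined, from near clinical Cmax (or 10 microM if unknown) down in half-log steps, 0.25% DMSO final.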

[1] abbreviates: curve of first compound, second compound 0.003 µM.

Structures are written as SMILES. Where “and” joins values, the source holds several entries; their conditions need not be identical. Identical values can stand only once. Where only a bound is given, the exact number is not on record here.
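Further: spheroids exposed to compound for 7 days before measurement.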
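Wherever viability, T/C is given: percent of vehicle control viability with 100% = DMSO-treated spheroids.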

With `CC1COCCN1c1cc(-c2ccnn2C)c2ccnc(-c3ccn[nH]3)c2n1` (centres undefined), the viability, T/C (compound 0.0316 µM) is 90.1% and 88.7% and 108%; the viability, T/C (compound 0.1 µM) was 48.2% and 41.8% and 114%; the viability, T/C (compound 0.316 µM) was 14.5% and 13% and 23.9%; the viability, T/C (compound 1 µM) was 11.7% and 10.5% and 18.3%; the viability, T/C (compound 3.16 µM) is 12.6% and 11.9% and 16.4%; the viability, T/C (compound 10 µM) was 11.6% (2×) and 11.7%. The half-inhibitory concentration (IC50) (curve of compound) was 95.2 nM and 81.8 nM and 224 nM.
On to `Cc1sc2c(c1C)C(c1ccc(Cl)cc1)=NC(CC(=O)Nc1ccc(O)cc1)c1nnc(C)n1-2` (centres undefined) + COc1cc2c(cc1O)CCNC21CSC2c3c(OC(C)=O)c(C)c4c(c3C(COC1=O)N1C(O)C3Cc5cc(C)c(OC)c(O)c5C(C21)N3C)OCO4, for which the concentration for half-maximal inhibition (IC50) is 142 nM (curve of first compound, second compound 30 pM); 104 nM (curve of first compound, second compound 94.9 pM); 39.2 nM (curve of first compound, second compound 0.0003 µM); less than 9.49 nM (curve of first compound, second compound 0.000949 µM); less than 9.49 nM under setting [1]. Also, the viability, T/C reads like this: (second compound 30 pM, first compound 0.00949 µM) 97.4%; (second compound 30 pM, first compound 0.03 µM) 101%; (second compound 30 pM, first compound 0.0949 µM) 63.3%; (second compound 30 pM, first compound 0.3 µM) 22.3%; (second compound 30 pM, first compound 0.949 µM) 3.92%; (second compound 30 pM, first compound 3 µM) 0.75%. In addition, the viability, T/C runs as follows: (second compound 94.9 pM, first compound 0.00949 µM) 99.1%; (second compound 94.9 pM, first compound 0.03 µM) 104%; (second compound 94.9 pM, first compound 0.0949 µM) 53.6%; (second compound 94.9 pM, first compound 0.3 µM) 7.33%; (second compound 94.9 pM, first compound 0.949 µM) 1.23%; (second compound 94.9 pM, first compound 3 µM) 0.57%. For the same compound, the viability, T/C by setting is: (second compound 0.0003 µM, first compound 0.00949 µM) 87.3%; (second compound 0.0003 µM, first compound 0.03 µM) 56%; (second compound 0.0003 µM, first compound 0.0949 µM) 28.3%; (second compound 0.0003 µM, first compound 0.3 µM) 4.02%; (second compound 0.0003 µM, first compound 0.949 µM) 0.43%; (second compound 0.0003 µM, first compound 3 µM) 0.38%. Further, the viability, T/C is, setting by setting: (second compound 0.000949 µM, first compound 0.00949 µM) 0.25%; (second compound 0.000949 µM, first compound 0.03 µM) 0.35%; (second compound 0.000949 µM, first compound 0.0949 µM) 0.19%; (second compound 0.000949 µM, first compound 0.3 µM) 0.18%; (second compound 0.000949 µM, first compound 0.949 µM) 0.18%; (second compound 0.000949 µM, first compound 3 µM) 0.57%. In addition, the viability, T/C was 1.49% (second compound 0.003 µM, first compound 0.00949 µM); 1.62% (second compound 0.003 µM, first compound 0.03 µM); 1.47% (second compound 0.003 µM, first compound 0.0949 µM); 1.59% (second compound 0.003 µM, first compound 0.3 µM); 2.52% (second compound 0.003 µM, first compound 0.949 µM); 3.49% (second compound 0.003 µM, first compound 3 µM).
Turning to `COc1ccc([C@@H](O)c2cc(-c3ncnc4cc(N5CCOCC5)ccc34)c(F)cc2Cl)nn1`, the viability, T/C is 106% and 101% and 93.8% (compound 0.0316 µM); 97.6% and 102% and 111% (compound 0.1 µM); 105% and 103% and 114% (compound 0.316 µM); 112% and 102% and 111% (compound 1 µM); 88% and 62.7% and 101% (compound 3.16 µM); 30.2% and 29% and 33.6% (compound 10 µM). The IC50 (curve of compound) was 6740 nM and 4890 nM and 7570 nM.
In the case of `CC(C)n1c(=O)n(C)c2cnc3cc(F)c(-c4ccc(OCCCN5CCCCC5)nc4)cc3c21` + CC[C@@]1(O)C(=O)OCc2c1cc1n(c2=O)Cc2cc3c(CN(C)C)c(O)ccc3nc2-1, the IC50 by setting is: under setting [1], greater than 10000 nM; (curve of first compound, second compound 0.00949 µM) 4930 nM; (curve of first compound, second compound 0.03 µM) less than 31.6 nM; (curve of first compound, second compound 0.0949 µM) less than 31.6 nM; (curve of first compound, second compound 0.3 µM) less than 31.6 nM. For the same compound, the viability, T/C is 96.9% (second compound 0.003 µM, first compound 0.0316 µM); 93.2% (second compound 0.003 µM, first compound 0.1 µM); 93.8% (second compound 0.003 µM, first compound 0.316 µM); 99.6% (second compound 0.003 µM, first compound 1 µM); 100% (second compound 0.003 µM, first compound 3.16 µM); 63.9% (second compound 0.003 µM, first compound 10 µM). In addition, the viability, T/C was 67.6% (second compound 0.00949 µM, first compound 0.0316 µM); 69.3% (second compound 0.00949 µM, first compound 0.1 µM); 66.2% (second compound 0.00949 µM, first compound 0.316 µM); 67.7% (second compound 0.00949 µM, first compound 1 µM); 63.4% (second compound 0.00949 µM, first compound 3.16 µM); 28.7% (second compound 0.00949 µM, first compound 10 µM). Further, the viability, T/C (second compound 0.03 µM, first compound 0.0316 µM) was 24.3%; the viability, T/C (second compound 0.03 µM, first compound 0.1 µM) was 22%; the viability, T/C (second compound 0.03 µM, first compound 0.316 µM) was 22.2%; the viability, T/C (second compound 0.03 µM, first compound 1 µM) is 22.7%; the viability, T/C (second compound 0.03 µM, first compound 3.16 µM) is 27.8%; the viability, T/C (second compound 0.03 µM, first compound 10 µM) was 17%. Further, the viability, T/C is 7.03% (second compound 0.0949 µM, first compound 0.0316 µM); 9.49% (second compound 0.0949 µM, first compound 0.1 µM); 9.54% (second compound 0.0949 µM, first compound 0.316 µM); 9.81% (second compound 0.0949 µM, first compound 1 µM); 11.7% (second compound 0.0949 µM, first compound 3.16 µM); 12.4% (second compound 0.0949 µM, first compound 10 µM). For the same compound, the viability, T/C runs as follows: (second compound 0.3 µM, first compound 0.0316 µM) 5.01%; (second compound 0.3 µM, first compound 0.1 µM) 4.88%; (second compound 0.3 µM, first compound 0.316 µM) 5.74%; (second compound 0.3 µM, first compound 1 µM) 6.26%; (second compound 0.3 µM, first compound 3.16 µM) 8.16%; (second compound 0.3 µM, first compound 10 µM) 8.82%.

Values taken from PubChem BioAssay AID1845197 (Molecular Pharmacology Branch, DTP, NCI, 2023).
